Where two headings read alike, the source gives them in different places.
What was measured:
[1] = molecular target: PI3K-δ (PI3K(p1108/p857) (h)) (Homo sapiens, UniProt O00329); test: Evaluation of inhibitory activity against PI3K-δ (HTRF kinase assay); assay type: biochemical; conditions: for inhibition at 0.1 µM: read-out: EXP_VALUE(% Inhibition) PI3K-δ 0.1 μM; for inhibition at 0.01 µM: compound concentration 0.01 μM, read-out: EXP_VALUE(% Inhibition) PI3K-δ 0.01 μM
Outline: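 HTRF read-out (665/620 nm ratio ×10000) used Eu-labelled anti-GST, GST-tagged GRP1 PH domain and streptavidin-allophycocyanin after EDTA/PIP3 stop.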

DNA-PK(h) = DNA-PK(h) (Homo sapiens, UniProt P78527); test: Evaluation of inhibitory activity against DNA-PK (HTRF kinase assay, GST-cMyc-p53 substrate); assay type: biochemical; conditions: for inhibition at 0.1 µM: read-out: EXP_VALUE(% Inhibition) DNA-PK(h) 0.1 μM; for inhibition at 0.01 µM: compound concentration 0.01 μM, read-out: EXP_VALUE(% Inhibition) DNA-PK(h) 0.01 μM
Outline: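 Human DNA-PK with 50 μM GST-cMyc-p53 substrate; reaction started with Mg/ATP, run 30 min at room temperature, stopped with EDTA. Phospho-Ser15 p53 detected by HTRF (Eu anti-phospho-Ser15, d2 anti-GST), signal = 10000×(Em 665/Em 620).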

Chain of PI3K-δ (PI3K(p1108/p857) (h)) (O00329 whole entry, the tested form may be a part): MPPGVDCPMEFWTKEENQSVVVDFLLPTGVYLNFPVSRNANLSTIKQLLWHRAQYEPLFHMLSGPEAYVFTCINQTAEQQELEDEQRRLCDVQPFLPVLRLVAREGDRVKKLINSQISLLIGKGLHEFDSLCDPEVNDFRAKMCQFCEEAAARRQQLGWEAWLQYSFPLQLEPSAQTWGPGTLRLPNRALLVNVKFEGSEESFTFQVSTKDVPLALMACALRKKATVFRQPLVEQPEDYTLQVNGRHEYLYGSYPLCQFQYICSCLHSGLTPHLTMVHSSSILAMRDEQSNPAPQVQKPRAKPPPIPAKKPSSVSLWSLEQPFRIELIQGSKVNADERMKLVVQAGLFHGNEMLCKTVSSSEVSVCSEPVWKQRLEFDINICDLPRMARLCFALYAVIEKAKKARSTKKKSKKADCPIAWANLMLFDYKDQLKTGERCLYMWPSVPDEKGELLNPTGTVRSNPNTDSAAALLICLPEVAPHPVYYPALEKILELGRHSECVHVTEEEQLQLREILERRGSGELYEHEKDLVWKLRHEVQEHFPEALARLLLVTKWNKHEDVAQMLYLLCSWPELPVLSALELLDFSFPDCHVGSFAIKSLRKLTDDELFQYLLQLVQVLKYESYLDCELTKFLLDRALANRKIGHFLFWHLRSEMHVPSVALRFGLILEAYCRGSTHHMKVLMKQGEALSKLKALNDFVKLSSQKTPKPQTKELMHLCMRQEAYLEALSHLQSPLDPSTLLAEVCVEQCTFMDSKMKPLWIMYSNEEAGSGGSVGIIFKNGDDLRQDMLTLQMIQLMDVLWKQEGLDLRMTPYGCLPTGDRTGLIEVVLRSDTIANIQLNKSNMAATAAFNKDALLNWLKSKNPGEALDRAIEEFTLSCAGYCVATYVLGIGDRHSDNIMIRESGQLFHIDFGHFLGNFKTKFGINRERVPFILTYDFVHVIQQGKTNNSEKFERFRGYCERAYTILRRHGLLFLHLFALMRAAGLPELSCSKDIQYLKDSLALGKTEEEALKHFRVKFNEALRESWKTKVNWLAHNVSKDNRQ
Chain of PI3K-δ (PI3K(p1108/p857) (h)) (P27986 whole entry partner, the tested form may be a part): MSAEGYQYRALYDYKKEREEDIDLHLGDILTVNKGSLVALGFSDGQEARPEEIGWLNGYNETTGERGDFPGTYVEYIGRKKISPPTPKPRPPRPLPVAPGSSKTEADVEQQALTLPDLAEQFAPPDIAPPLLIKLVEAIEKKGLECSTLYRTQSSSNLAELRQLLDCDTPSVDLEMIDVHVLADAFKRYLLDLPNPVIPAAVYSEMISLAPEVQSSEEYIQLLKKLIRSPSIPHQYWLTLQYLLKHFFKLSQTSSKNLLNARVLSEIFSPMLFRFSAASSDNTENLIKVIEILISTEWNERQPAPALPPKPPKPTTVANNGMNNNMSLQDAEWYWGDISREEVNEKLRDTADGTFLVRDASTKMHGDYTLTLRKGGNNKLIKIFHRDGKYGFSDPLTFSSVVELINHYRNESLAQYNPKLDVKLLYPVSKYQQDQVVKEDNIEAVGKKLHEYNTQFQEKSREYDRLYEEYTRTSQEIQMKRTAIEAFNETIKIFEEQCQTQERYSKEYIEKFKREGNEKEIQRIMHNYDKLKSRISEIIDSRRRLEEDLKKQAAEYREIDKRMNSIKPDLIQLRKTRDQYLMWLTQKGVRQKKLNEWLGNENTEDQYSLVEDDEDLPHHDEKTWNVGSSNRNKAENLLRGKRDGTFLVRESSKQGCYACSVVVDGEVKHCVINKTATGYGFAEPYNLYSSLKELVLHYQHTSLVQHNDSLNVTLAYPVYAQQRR

SMILES	inhibition at 0.1 µM ([1]; compound at 0.1 μM)	inhibition at 0.1 µM (DNA-PK(h); compound at 0.1 μM)	inhibition at 0.01 µM [1]	inhibition at 0.01 µM (DNA-PK(h))	inhibition at 0.1 µM ([1]; compound concentration 0.1 μM)	inhibition at 0.1 µM (DNA-PK(h); compound concentration 0.1 μM)
CC(C)Oc1ncc(-c2cccc3c(Cl)c([C@H](C)Nc4ncnc5[nH]ccc(=O)c45)n(-c4ccccc4)c(=O)c23)cn1 [Example 182, (S)-4-((1-(4-chloro-8-(2-isopropoxypyrimidin-5-yl)-1-oxo-2-phenyl-1,2-dihydroisoquinolin-3-yl)ethyl)amino)pyrido[2,3-d]pyrimidin-5(8H)-one]	–	–	85%	64%	–	–
COc1cc(-c2cccc3c(Cl)c([C@H](C)Nc4ncnc5c4c(=O)ccn5-c4ccnc(OC)c4)n(-c4ccccc4)c(=O)c23)ccn1 [Example 149, (S)-4-((1-(4-chloro-8-(2-methoxypyridin-4-yl)-1-oxo-2-phenyl-1,2-dihydroisoquinolin-3-yl)ethyl)amino)-8-(2-methoxypyridin-4-yl)pyrido[2,3-d]pyrimidin-5(8H)-one]	–	–	2%	7%	–	–
C[C@H](Nc1ncnc2[nH]ccc(=O)c12)c1c(Cl)c2cccc(-c3cccc(F)c3)c2c(=O)n1-c1ccccc1 [Example 123, (S)-4-((1-(4-chloro-8-(3-fluorophenyl)-1-oxo-2-phenyl-1,2-dihydroisoquinolin-3-yl)ethyl)amino)pyrido[2,3-d]pyrimidin-5(8H)-one]	–	–	66%	58%	94%	93%
C[C@H](Nc1ncnc2[nH]ccc(=O)c12)c1c(Cl)c2cccc(-c3ccc4[nH]ncc4c3)c2c(=O)n1-c1ccccc1 [Example 236, (S)-4-((1-(4-chloro-8-(1H-indazol-5-yl)-1-oxo-2-phenyl-1,2-dihydroisoquinolin-3-yl)ethyl)amino)pyrido[2,3-d]pyrimidin-5(8H)-one]	–	–	79%	46%	–	–
C[C@H](Nc1ncnc2[nH]ccc(=O)c12)c1c(Cl)c2cccc(-c3ccc(C4CCOCC4)cc3)c2c(=O)n1-c1ccccc1 [Example 176, (S)-4-((1-(4-chloro-1-oxo-2-phenyl-8-(4-(tetrahydro-2H-pyran-4-yl)phenyl)-1,2-dihydroisoquinolin-3-yl)ethyl)amino)pyrido[2,3-d]pyrimidin-5(8H)-one]	–	–	19%	48%	–	–
COc1ccc(-c2cccc3c(Cl)c([C@H](C)Nc4ncnc5[nH]ccc(=O)c45)n(-c4ccccc4)c(=O)c23)cn1 [Example 133, (S)-4-((1-(4-chloro-8-(6-methoxypyridin-3-yl)-1-oxo-2-phenyl-1,2-dihydroisoquinolin-3-yl)ethyl)amino)pyrido[2,3-d]pyrimidin-5(8H)-one]	–	–	78%	79%	88%	99%
CCN(CC)c1ncc(-c2cccc3c(Cl)c([C@H](C)Nc4ncnc5[nH]ccc(=O)c45)n(-c4ccccc4)c(=O)c23)cn1 [Example 217, (S)-4-((1-(4-chloro-8-(2-(diethylamino)pyrimidin-5-yl)-1-oxo-2-phenyl-1,2-dihydroisoquinolin-3-yl)ethyl)amino)pyrido[2,3-d]pyrimidin-5(8H)-one]	–	–	71%	66%	–	–
C[C@H](Nc1ncnc2[nH]ccc(=O)c12)c1c(Cl)c2cccc(-c3ccc(C#N)cc3)c2c(=O)n1-c1ccccc1 [Example 259, (S)-4-(4-chloro-1-oxo-3-(1-((5-oxo-5,8-dihydropyrido[2,3-d]pyrimidin-4-yl)amino)ethyl)-2-phenyl-1,2-dihydroisoquinolin-8-yl)benzonitrile]	–	–	108%	50%	116%	86%
C[C@H](Nc1ncnc2[nH]ccc(=O)c12)c1c(Cl)c2cccc(-c3cnc(N4CCOCC4)nc3)c2c(=O)n1-c1ccccc1 [Example 174, (S)-4-((1-(4-chloro-8-(2-morpholinopyrimidin-5-yl)-1-oxo-2-phenyl-1,2-dihydroisoquinolin-3-yl)ethyl)amino)pyrido[2,3-d]pyrimidin-5(8H)-one]	–	–	65%	67%	–	–
C[C@H](Nc1ncnc2[nH]ccc(=O)c12)c1c(Cl)c2cccc(-c3cnc4[nH]ccc4c3)c2c(=O)n1-c1ccccc1 [Example 25, (S)-4-((1-(4-chloro-1-oxo-2-phenyl-8-(1H-pyrrolo[2,3-b]pyridin-5-yl)-1,2-dihydroisoquinolin-3-yl)ethyl)amino)pyrido[2,3-d]pyrimidin-5(8H)-one]	–	–	6%	7%	–	–
C[C@H](Nc1ncnc2[nH]ccc(=O)c12)c1c(Cl)c2cccc(-c3ccc4[nH]c(=O)[nH]c4c3)c2c(=O)n1-c1ccccc1 [Example 21, (S)-4-((1-(4-chloro-1-oxo-8-(2-oxo-2,3-dihydro-1H-benzo[d]imidazol-5-yl)-2-phenyl-1,2-dihydroisoquinolin-3-yl)ethyl)amino)pyrido[2,3-d]pyrimidin-5(8H)-one]	–	–	90%	69%	99%	95%
COc1cc(-c2cccc3c(Cl)c([C@H](C)Nc4ncnc5[nH]ccc(=O)c45)n(-c4ccccc4)c(=O)c23)nc(OC)n1 [Example 49, (S)-4-((1-(4-chloro-8-(2,6-dimethoxypyrimidin-4-yl)-1-oxo-2-phenyl-1,2-dihydroisoquinolin-3-yl)ethyl)amino)pyrido[2,3-d]pyrimidin-5(8H)-one]	–	–	23%	-3%	–	–
C[C@H](Nc1ncnc2[nH]ccc(=O)c12)c1c(Cl)c2cccc(-c3cnc(OC(C)(C)C)nc3)c2c(=O)n1-c1ccccc1 [Example 424, (S)-4-((1-(8-(2-(tert-butoxy)pyrimidin-5-yl)-4-chloro-1-oxo-2-phenyl-1,2-dihydroisoquinolin-3-yl)ethyl)amino)pyrido[2,3-d]pyrimidin-5(8H)-one]	38%	56%	–	–	–	–
Cc1ccc(F)cc1-c1cccc2c(Cl)c([C@H](C)Nc3ncnc4[nH]ccc(=O)c34)n(-c3ccccc3)c(=O)c12 [Example 127, (S)-4-((1-(4-chloro-8-(5-fluoro-2-methylphenyl)-1-oxo-2-phenyl-1,2-dihydroisoquinolin-3-yl)ethyl)amino)pyrido[2,3-d]pyrimidin-5(8H)-one]	–	–	89%	38%	92%	81%

Continued, values first:

inhibition at 0.1 µM ([1]; compound at 0.1 μM)	inhibition at 0.1 µM (DNA-PK(h); compound at 0.1 μM)	inhibition at 0.01 µM [1]	inhibition at 0.01 µM (DNA-PK(h))	inhibition at 0.1 µM ([1]; compound concentration 0.1 μM)	inhibition at 0.1 µM (DNA-PK(h); compound concentration 0.1 μM)	SMILES
61%	18%	–	–	–	–	C[C@H](Nc1ncnc2[nH]ccc(=O)c12)c1c(Cl)c2cccc(-c3cnc(-c4ccco4)nc3)c2c(=O)n1-c1ccccc1 [Example 378, (S)-4-((1-(4-chloro-8-(2-(furan-2-yl)pyrimidin-5-yl)-1-oxo-2-phenyl-1,2-dihydroisoquinolin-3-yl)ethyl)amino)pyrido[2,3-d]pyrimidin-5(8H)-one]
–	–	71%	27%	101%	71%	C[C@H](Nc1ncnc2[nH]ccc(=O)c12)c1c(Cl)c2cccc(C#Cc3cccs3)c2c(=O)n1-c1ccccc1 [Example 304, (S)-4-((1-(4-chloro-1-oxo-2-phenyl-8-(thiophen-2-ylethynyl)-1,2-dihydroisoquinolin-3-yl)ethyl)amino)pyrido[2,3-d]pyrimidin-5(8H)-one]
–	–	105%	11%	–	–	C[C@H](Nc1ncnc2[nH]ccc(=O)c12)c1c(Cl)c2cccc(C(=O)NCc3ccco3)c2c(=O)n1-c1ccccc1 [Example 279, (S)-4-chloro-N-(furan-2-ylmethyl)-1-oxo-3-(1-((5-oxo-5,8-dihydropyrido[2,3-d]pyrimidin-4-yl)amino)ethyl)-2-phenyl-1,2-dihydroisoquinoline-8-carboxamide]
17%	53%	–	–	–	–	CCC[S@](=N)(=O)c1cccc2c(Cl)c([C@H](C)Nc3ncnc4[nH]ccc(=O)c34)n(-c3ccccc3)c(=O)c12 [Example 409, 4-(((S)-1-(4-chloro-1-oxo-2-phenyl-8-((S)-propylsulfonimidoyl)-1,2-dihydroisoquinolin-3-yl)ethyl)amino)pyrido[2,3-d]pyrimidin-5(8H)-one]
–	–	62%	34%	–	–	C[C@H](Nc1ncnc2[nH]ccc(=O)c12)c1c(Cl)c2cccc(C3NCCS3)c2c(=O)n1-c1ccccc1 (stereo partly drawn) [Example 356, 4-(((1S)-1-(4-chloro-1-oxo-2-phenyl-8-(thiazolidin-2-yl)-1,2-dihydroisoquinolin-3-yl)ethyl)amino)pyrido[2,3-d]pyrimidin-5(8H)-one]
44%	32%	–	–	–	–	C[C@H](Nc1ncnc2[nH]ccc(=O)c12)c1c(Cl)c2cccc(S(=O)(=O)c3ccccn3)c2c(=O)n1-c1ccccc1 [Example 414, (S)-4-((1-(4-chloro-1-oxo-2-phenyl-8-(pyridin-2-ylsulfonyl)-1,2-dihydroisoquinolin-3-yl)ethyl)amino)pyrido[2,3-d]pyrimidin-5(8H)-one]
–	–	46.8%	39.8%	77.1%	84.3%	C[C@H](Nc1ncnc2[nH]ccc(=O)c12)c1c(Cl)c2cccc(C#Cc3nccs3)c2c(=O)n1-c1ccccc1 [Example 312, (S)-4-((1-(4-chloro-1-oxo-2-phenyl-8-(thiazol-2-ylethynyl)-1,2-dihydroisoquinolin-3-yl)ethyl)amino)pyrido[2,3-d]pyrimidin-5(8H)-one]
